{
  "source": "patent US10898475B2",
  "about": "“Bach1 inhibitors in combination with Nrf2 activators and pharmaceutical compositions thereof” (vTv Therapeutics LLC, priority 2014, dated 2021)",
  "system": "HMOX1 in Normal Human Lung Fibroblasts (NHLF)",
  "test": "HMOX1 Protein Expression (immunostaining, fold induction or % positive cells over DMSO)",
  "details": "for Hill slope of DMF dose response curves in Table 2: % Positive HMOX",
  "key": {"[1]": {"details": "Homo sapiens, Fibroblast, read-out: Fold Induction of HMOX"}},
  "procedure": "Normal Human Lung Fibroblasts (NHLF) obtained from Lonza were cultured in T-225 flasks using conditions recommended by the vendor (FGM-2 medium supplemented with 2% fetal bovine serum (FBS), fibroblast growth factor (hFGF-B) 0.5 mL, insulin 0.5 mL, and gentamicin/amphotericin-B 0.5 mL at 37° C. in a humidified atmosphere of 5% CO2).\nFor assays, cell were thawed and placed into culture in T225 flasks, grown to be 80% confluent, and harvested as described by the vendor. NHLF cells (2.5×10^4 cells per well) were plated in 384 well optilux tissue culture (BD) plates and incubated overnight in media prior to exposure to compound. Cells were incubated with DMSO or various combinations of either an Nrf2 Activator (DMF (dimethyl fumarate)/CDDO-Me) or a Bach1 Inhibitor for 16-18 hr. Cells were then fixed and permeabilized prior to incubation with HMOX1 antibody (abcam; 1:300 dilution in 1% BSA in PBS) for 1 hour. Cells were then washed and incubated with a solution of fluorescently-coupled goat anti-mouse antibody (Alexa 488 1:400 dilution Invitrogen) and Hoechst nuclear stain (1:2000; Invitrogen) in PBS containing 1% BSA for 1 hr. Immunostaining was detected using a GE InCell 2000 instrument at the following wavelengths: Hoechst Ex/Em 360/535 and Alexa 488 Ex/Em 480/535. Results were analyzed using GE InCell Analyzer software and represented as the increase fold of HMOX1 induction (Fold induction/FI) or the percentage of HMOX1 positive (% positive) cells over DMSO.",
  "data": [
    {"smiles": "COC(=O)[C@]12CCC(C)(C)C[C@H]1[C@H]1C(=O)C=C3[C@@]4(C)C=C(C#N)C(=O)C(C)(C)[C@@H]4CC[C@@]3(C)[C@]1(C)CC2", "note": "[Bardoxolone Methyl, methyl 2-cyano-3,12-dioxooleana-1,9(11)dien-28-oate, reference compound]", "values": [
      {"measurement": "increase HMOX1 (FIG. 1 bar B)", "setting": "9.7 nM CDDO-Me alone", "value": 2.5, "unit": "fold"},
      {"measurement": "induction of HMOX1 protein", "setting": "CDDO-Me alone, greater than or equal to 156 nM", "value": 19, "unit": "fold"},
      {"measurement": "fold induction at 0.0024 µM", "setting": "[1]", "value": 1.31},
      {"measurement": "fold induction at 0.0048 µM", "setting": "[1]", "value": 1.59},
      {"measurement": "fold induction at 0.0097 µM", "setting": "[1]", "value": 2.53},
      {"measurement": "fold induction at 0.019 µM", "setting": "[1]", "value": 5},
      {"measurement": "fold induction at 0.039 µM", "setting": "[1]", "value": 8.48},
      {"measurement": "fold induction at 0.078 µM", "setting": "[1]", "value": 12.2},
      {"measurement": "fold induction at 0.156 µM", "setting": "[1]", "value": 19},
      {"measurement": "fold induction at 0.312 µM", "setting": "[1]", "value": 16.4}
    ]},
    {"smiles": "Cn1c(Nc2nc3ccc(C(F)(F)F)cc3s2)nc2cc(C(=O)NCCOCCO)ccc21", "note": "[HPP-D, 1-Methyl-2-(6-trifluoromethyl-benzothiazol-2-ylamino)-1H-benzoimidazole-5-carboxylic acid [2-(2-hydroxy-ethoxy)-ethyl]-amide]", "values": [
      {"measurement": "Hill slope of DMF dose response curves in Table 2", "setting": "Bach1 Inhibitor Conc. 0.019 uM", "value": 2.23},
      {"measurement": "Hill slope of DMF dose response curves in Table 2", "setting": "Bach1 Inhibitor Conc. 0.039 uM", "value": 1.69},
      {"measurement": "Hill slope of DMF dose response curves in Table 2", "setting": "Bach1 Inhibitor Conc. 0.078 uM", "value": 0.90},
      {"measurement": "Hill slope of DMF dose response curves in Table 2", "setting": "Bach1 Inhibitor Conc. 0.156 uM", "value": 0.23},
      {"measurement": "% Cells Positive HMOX", "setting": "Cpd. 0.019 uM, DMF 0 uM", "value": 19.42, "unit": "%"},
      {"measurement": "Fold Induction of HMOX", "setting": "Cpd. 0.019 uM, DMF 0 uM", "value": 2.08, "unit": "fold"},
      {"measurement": "% Cells Positive HMOX", "setting": "Cpd. 0.019 uM, DMF 0.03 uM", "value": 4.94, "unit": "%"},
      {"measurement": "Fold Induction of HMOX", "setting": "Cpd. 0.019 uM, DMF 0.03 uM", "value": 1.31, "unit": "fold"},
      {"measurement": "% Cells Positive HMOX", "setting": "Cpd. 0.019 uM, DMF 0.1 uM", "value": 4.52, "unit": "%"},
      {"measurement": "Fold Induction of HMOX", "setting": "Cpd. 0.019 uM, DMF 0.1 uM", "value": 1.23, "unit": "fold"},
      {"measurement": "% Cells Positive HMOX", "setting": "Cpd. 0.019 uM, DMF 0.3 uM", "value": 7.63, "unit": "%"},
      {"measurement": "Fold Induction of HMOX", "setting": "Cpd. 0.019 uM, DMF 0.3 uM", "value": 1.44, "unit": "fold"},
      {"measurement": "% Cells Positive HMOX", "setting": "Cpd. 0.019 uM, DMF 1 uM", "value": 26.41, "unit": "%"},
      {"measurement": "Fold Induction of HMOX", "setting": "Cpd. 0.019 uM, DMF 1 uM", "value": 2.17, "unit": "fold"},
      {"measurement": "% Cells Positive HMOX", "setting": "Cpd. 0.019 uM, DMF 3 uM", "value": 80.18, "unit": "%"},
      {"measurement": "Fold Induction of HMOX", "setting": "Cpd. 0.019 uM, DMF 3 uM", "value": 3.55, "unit": "fold"},
      {"measurement": "% Cells Positive HMOX", "setting": "Cpd. 0.019 uM, DMF 10 uM", "value": 96.12, "unit": "%"},
      {"measurement": "Fold Induction of HMOX", "setting": "Cpd. 0.019 uM, DMF 10 uM", "value": 5.12, "unit": "fold"},
      {"measurement": "% Cells Positive HMOX", "setting": "Cpd. 0.019 uM, DMF 30 uM", "value": 84.02, "unit": "%"},
      {"measurement": "Fold Induction of HMOX", "setting": "Cpd. 0.019 uM, DMF 30 uM", "value": 4.90, "unit": "fold"},
      {"measurement": "% Cells Positive HMOX", "setting": "Cpd. 0.039 uM, DMF 0 uM", "value": 28.04, "unit": "%"},
      {"measurement": "Fold Induction of HMOX", "setting": "Cpd. 0.039 uM, DMF 0 uM", "value": 2.51, "unit": "fold"},
      {"measurement": "% Cells Positive HMOX", "setting": "Cpd. 0.039 uM, DMF 0.03 uM", "value": 11.95, "unit": "%"},
      {"measurement": "Fold Induction of HMOX", "setting": "Cpd. 0.039 uM, DMF 0.03 uM", "value": 1.81, "unit": "fold"},
      {"measurement": "% Cells Positive HMOX", "setting": "Cpd. 0.039 uM, DMF 0.1 uM", "value": 6.75, "unit": "%"},
      {"measurement": "Fold Induction of HMOX", "setting": "Cpd. 0.039 uM, DMF 0.1 uM", "value": 1.52, "unit": "fold"},
      {"measurement": "% Cells Positive HMOX", "setting": "Cpd. 0.039 uM, DMF 0.3 uM", "value": 18.66, "unit": "%"},
      {"measurement": "Fold Induction of HMOX", "setting": "Cpd. 0.039 uM, DMF 0.3 uM", "value": 1.81, "unit": "fold"},
      {"measurement": "% Cells Positive HMOX", "setting": "Cpd. 0.039 uM, DMF 1 uM", "value": 38.70, "unit": "%"},
      {"measurement": "Fold Induction of HMOX", "setting": "Cpd. 0.039 uM, DMF 1 uM", "value": 2.60, "unit": "fold"},
      {"measurement": "% Cells Positive HMOX", "setting": "Cpd. 0.039 uM, DMF 3 uM", "value": 78.65, "unit": "%"},
      {"measurement": "Fold Induction of HMOX", "setting": "Cpd. 0.039 uM, DMF 3 uM", "value": 4.00, "unit": "fold"},
      {"measurement": "% Cells Positive HMOX", "setting": "Cpd. 0.039 uM, DMF 10 uM", "value": 99.17, "unit": "%"},
      {"measurement": "Fold Induction of HMOX", "setting": "Cpd. 0.039 uM, DMF 10 uM", "value": 5.64, "unit": "fold"},
      {"measurement": "% Cells Positive HMOX", "setting": "Cpd. 0.039 uM, DMF 30 uM", "value": 91.91, "unit": "%"},
      {"measurement": "Fold Induction of HMOX", "setting": "Cpd. 0.039 uM, DMF 30 uM", "value": 5.52, "unit": "fold"},
      {"measurement": "% Cells Positive HMOX", "setting": "Cpd. 0.078 uM, DMF 0 uM", "value": 73.95, "unit": "%"},
      {"measurement": "Fold Induction of HMOX", "setting": "Cpd. 0.078 uM, DMF 0 uM", "value": 4.34, "unit": "fold"},
      {"measurement": "% Cells Positive HMOX", "setting": "Cpd. 0.078 uM, DMF 0.03 uM", "value": 33.51, "unit": "%"},
      {"measurement": "Fold Induction of HMOX", "setting": "Cpd. 0.078 uM, DMF 0.03 uM", "value": 2.35, "unit": "fold"},
      {"measurement": "% Cells Positive HMOX", "setting": "Cpd. 0.078 uM, DMF 0.1 uM", "value": 44.61, "unit": "%"},
      {"measurement": "Fold Induction of HMOX", "setting": "Cpd. 0.078 uM, DMF 0.1 uM", "value": 2.87, "unit": "fold"},
      {"measurement": "% Cells Positive HMOX", "setting": "Cpd. 0.078 uM, DMF 0.3 uM", "value": 61.50, "unit": "%"},
      {"measurement": "Fold Induction of HMOX", "setting": "Cpd. 0.078 uM, DMF 0.3 uM", "value": 3.21, "unit": "fold"},
      {"measurement": "% Cells Positive HMOX", "setting": "Cpd. 0.078 uM, DMF 1 uM", "value": 84.85, "unit": "%"},
      {"measurement": "Fold Induction of HMOX", "setting": "Cpd. 0.078 uM, DMF 1 uM", "value": 3.83, "unit": "fold"},
      {"measurement": "% Cells Positive HMOX", "setting": "Cpd. 0.078 uM, DMF 3 uM", "value": 90.28, "unit": "%"},
      {"measurement": "Fold Induction of HMOX", "setting": "Cpd. 0.078 uM, DMF 3 uM", "value": 4.20, "unit": "fold"},
      {"measurement": "% Cells Positive HMOX", "setting": "Cpd. 0.078 uM, DMF 10 uM", "value": 97.73, "unit": "%"},
      {"measurement": "Fold Induction of HMOX", "setting": "Cpd. 0.078 uM, DMF 10 uM", "value": 6.52, "unit": "fold"},
      {"measurement": "% Cells Positive HMOX", "setting": "Cpd. 0.078 uM, DMF 30 uM", "value": 91.28, "unit": "%"},
      {"measurement": "Fold Induction of HMOX", "setting": "Cpd. 0.078 uM, DMF 30 uM", "value": 4.80, "unit": "fold"},
      {"measurement": "% Cells Positive HMOX", "setting": "Cpd. 0.156 uM, DMF 0 uM", "value": 96.31, "unit": "%"},
      {"measurement": "Fold Induction of HMOX", "setting": "Cpd. 0.156 uM, DMF 0 uM", "value": 6.46, "unit": "fold"},
      {"measurement": "% Cells Positive HMOX", "setting": "Cpd. 0.156 uM, DMF 0.03 uM", "value": 92.53, "unit": "%"},
      {"measurement": "Fold Induction of HMOX", "setting": "Cpd. 0.156 uM, DMF 0.03 uM", "value": 5.22, "unit": "fold"},
      {"measurement": "% Cells Positive HMOX", "setting": "Cpd. 0.156 uM, DMF 0.1 uM", "value": 88.16, "unit": "%"},
      {"measurement": "Fold Induction of HMOX", "setting": "Cpd. 0.156 uM, DMF 0.1 uM", "value": 4.89, "unit": "fold"},
      {"measurement": "% Cells Positive HMOX", "setting": "Cpd. 0.156 uM, DMF 0.3 uM", "value": 94.48, "unit": "%"},
      {"measurement": "Fold Induction of HMOX", "setting": "Cpd. 0.156 uM, DMF 0.3 uM", "value": 5.17, "unit": "fold"},
      {"measurement": "% Cells Positive HMOX", "setting": "Cpd. 0.156 uM, DMF 1 uM", "value": 97.74, "unit": "%"},
      {"measurement": "Fold Induction of HMOX", "setting": "Cpd. 0.156 uM, DMF 1 uM", "value": 6.04, "unit": "fold"},
      {"measurement": "% Cells Positive HMOX", "setting": "Cpd. 0.156 uM, DMF 3 uM", "value": 99.20, "unit": "%"},
      {"measurement": "Fold Induction of HMOX", "setting": "Cpd. 0.156 uM, DMF 3 uM", "value": 7.69, "unit": "fold"},
      {"measurement": "% Cells Positive HMOX", "setting": "Cpd. 0.156 uM, DMF 10 uM", "value": 100.00, "unit": "%"},
      {"measurement": "Fold Induction of HMOX", "setting": "Cpd. 0.156 uM, DMF 10 uM", "value": 7.50, "unit": "fold"},
      {"measurement": "% Cells Positive HMOX", "setting": "Cpd. 0.156 uM, DMF 30 uM", "value": 92.22, "unit": "%"},
      {"measurement": "Fold Induction of HMOX", "setting": "Cpd. 0.156 uM, DMF 30 uM", "value": 6.18, "unit": "fold"},
      {"measurement": "combination effect in terms of the % HMOX positive cells", "setting": "combination with DMF at concentrations below their maximum effect (Table 2)", "value": "additive or greater than additive"},
      {"measurement": "change of Hill slope of the DMF dose response curve (FIG. 5)", "setting": "upon increasing amounts of the Bach1 Inhibitor", "value": "reduced"}
    ]}
  ]
}
